# Measurements published in patent US12012410B2, “Substituted pyrazolo[1,5-a]pyrazines for spinal muscular atrophy” (REBORNA BIOSCIENCES, INC., priority 2018, dated 2024).
# Tested on: FL-SMN mRNA (SMN transcript containing exons 7 and 8)
# Assay: Live-cell assay to measure changes in FL-SMN mRNA levels (qPCR) after exposure to the compounds
# Assay type: cell-based, human
# Conditions: fibroblasts derived from patients SMA (GM03813); 24 hours incubation
# Description: In this example, each test compound was administered to cultured cells, and changes in the expression levels of mRNA transcripts of SMN, i.e., FL-SMN containing exons 7 and 8 and Delta7 with exon 7 skipped, were examined using PCR.
# Fibroblasts derived from patients SMA (GM03813) (Coriell Cell Repositories) were cultured with passages using DMEM (High Glucose) (Life Technologies) supplemented with 10% FBS (Life Technologies). Cells were seeded in tissue-culture-treated 96-well plates (Corning) at 1.5 or 0.5×10^4 cells/well in 100 μL of medium. The cells were incubated in 5% CO2 for 6 hours, and the medium was replaced with 100 μL of medium (with DMSO, 0.1% final concentration) containing each of the compounds given in the Examples. After additional incubation for 24 hours under the same conditions, the cells were washed once with D-PBS(—) (Wako) and 25 μL/well of the lysis solution (with gDNA Remove) contained in the SuperPrep (registered trademark) Cell Lysis & RT Kit for qPCR (Toyobo life science) was added according to the manufacturer's instructions so that the cells were lysed and the genomic DNA was degraded. Furthermore, 5 μL of the STOP solution (with RNase Inhibitor) contained in the kit was added to provide RNA-containing solutions. Six microliters of the RNA-containing solutions were each mixed with 14 μL of a reverse transcription solution containing transcriptase together with dNTP, random primers and an oligodT primer. Reverse transcription was performed at 37° C. (15 min), 50° C. (5 min), and 98° C. (5 min), to give total cDNAs. The total cDNAs were diluted 30-fold with Ultra-pure water (Invitrogen) to measure the expression levels of FL-SMN, delta7, and GAPDH. For quantitative PCR (qPCR), a PCR solution was prepared according to the instructions of the manufacturer of the THUNDERBIRD (registered trademark) Probe qPCR Mix (Toyobo life science). Five microliters of the diluted total cDNA solutions and oligo DNA standard solutions, each containing either 001-Standard FL-SMN (SEQ ID NO. 1) or 002-Standard delta7 (SEQ ID NO. 2), were each mixed with 10 μL of each of the PCR solutions containing a qPCR probe, primers, and PCR enzyme. […] The oligoDNA standard solutions were prepared as those containing either of 5×10^8, 5×10^7, 5×10^6, 5×10^5, 5×10^4, 5×10^3, 5×10^2, 5×10, 5, or 0 copies. For the oligo DNA standards, primers, and probes, oligonucleotides synthesized by Integrated DNA Technologies, Inc. (IDT) were used. […] FIGS. 3B and 3D show their detection mechanisms. The final concentrations of the primers and probes added were 0.4 μM and 0.15 μM, respectively. The qPCR was performed using the following conditions on a ViiA7 instrument (Applied Biosystems): first stage: 95° C. (1 min)→second stage: 95° C. (15 sec)→third stage: 60° C. (1 min)→40 repeated cycles of the second and third stages. The GAPDH mRNA was used as the internal control, and the commercially available 20×gene expression PCR assay (Life Technologies, 4326317E, Hs99999905_ml) and Standard GAPDH (SEQ ID NO. 7) (see FIG. 1) was used to determine the number of copies of this gene. The measurement values obtained for the samples to be measured were standardized against the respective value obtained for GAPDH.
# Using the above-mentioned assays, the activities of the compounds of the Examples were evaluated. Specifically, the percentages of the FL-SMN and delta7 values obtained using DMSO without the compounds and standardized against GAPDH were set as 100% and those of the FL-SMN and delta7 values obtained at the time of administration of the compounds and standardized against GAPDH were calculated. […]
row,SMILES,"Percentage of increase (FL-SMN mRNA standardized against GAPDH, DMSO control set as 100%)"
1,"COc1cccc(-c2nc3ccc(C4CCN(C)CC4)cc3c(=O)[nH]2)c1F [Example 47, 2-(2-fluoro-3-methoxyphenyl)-6-(1-methylpiperidin-4-yl)quinazolin-4(3H)-one]",* (equal to or higher than 100% but lower than 120%)
2,"COc1ccnc(-c2nc3ccc(C4CCN(C)CC4)cc3c(=O)[nH]2)c1 [Example 48, 2-(4-Methoxypyridin-2-yl)-6-(1-methylpiperidin-4-yl)quinazolin-4(3H)-one]",* (equal to or higher than 100% but lower than 120%)
3,"COc1ccc(F)c(-c2nc3ccc(C4CCN(C)CC4)cc3c(=O)[nH]2)c1 [Example 49, 2-(2-fluoro-5-methoxyphenyl)-6-(1-methylpiperidin-4-yl)quinazolin-4(3H)-one]",* (equal to or higher than 100% but lower than 120%)
4,"Cc1cn2cc(-c3nc4ccc(N5CCN(C)CC5)cc4c(=O)[nH]3)nc2c(C)n1 [Example 50, 2-(6,8-dimethylimidazo[1,2-a]pyrazin-2-yl)-6-(4-methylpiperazin-1-yl)quinazolin-4(3H)-one]",** (equal to or higher than 120% but lower than 150%)
5,"COc1cc2nc(-c3cc4c(C)nc(C)cn4n3)[nH]c(=O)c2cc1C1CCN(C)CC1 [Example 51, 2-(4,6-dimethylpyrazolo[1,5-a]pyrazin-2-yl)-7-methoxy-6-(1-methylpiperidin-4-yl)quinazolin-4(3H)-one]",* (equal to or higher than 100% but lower than 120%)
6,"COc1cc(C2CCN(C)CC2)cc2c(=O)[nH]c(-c3cc4c(C)nc(C)cn4n3)nc12 [Example 52, 2-(4,6-dimethylpyrazolo[1,5-a]pyrazin-2-yl)-8-methoxy-6-(1-methylpiperidin-4-yl)quinazolin-4(3H)-one]",** (equal to or higher than 120% but lower than 150%)
7,"Cc1cn2cc(-c3nc4ccc(N5CCN(C)CC5)cc4c(=O)[nH]3)cc(F)c2n1 [Example 53, 2-(8-fluoro-2-methylimidazo[1,2-a]pyridin-6-yl)-6-(4-methylpiperazin-1-yl)quinazolin-4(3H)-one]",** (equal to or higher than 120% but lower than 150%)
8,"Cc1nc(C)c2cc(-c3nc4ccc(N5CCN(C)CC5)cc4c(=O)[nH]3)nn2c1C [Example 54, 6-(4-methylpiperazin-1 - yl)-2-(4,6,7-trimethylpyrazolo[1,5-a]pyrazin-2-yl)quinazolin-4(3H)-one]",* (equal to or higher than 100% but lower than 120%)
9,"Cc1cn2cc(-c3nc4ccc(N5CCN(C)CC5)cc4c(=O)[nH]3)cc(C)c2n1 [Example 55, 2-(2,8-dimethylimidazo[1,2-a]pyridin-6-yl)-6-(4-methylpiperazin-1-yl)quinazolin-4(3H)-one]",** (equal to or higher than 120% but lower than 150%)
10,"Cc1cn2cc(-c3nc4cc(F)c(N5CCN(C)CC5)cc4c(=O)[nH]3)cc(F)c2n1 [Example 56, 7-fluoro-2-(8-fluoro-2-methylimidazo[1,2-a]pyridin-6-yl)-6-(4-methylpiperazin-1-yl)quinazolin-4(3H)-one]",** (equal to or higher than 120% but lower than 150%)
11,"Cc1cn2cc(-c3nc4cc(F)c(N5CCN(C)CC5)cc4c(=O)[nH]3)cc(C)c2n1 [Example 57, 2-(2,8-dimethylimidazo[1,2-a]pyridin-6-yl)-7-fluoro-6-(4-methylpiperazin-1 - yl)quinazolin-4(3H)-one]",** (equal to or higher than 120% but lower than 150%)
12,"Cc1cn2cc(-c3nc4ccc(N5CCN(C)CC5)cc4c(=O)[nH]3)ccc2n1 [Example 58, 2-(2-methylimidazo[1,2-a]pyridin-6-yl)-6-(4-methylpiperazin-1-yl)quinazolin-4(3H)-one]",** (equal to or higher than 120% but lower than 150%)
13,"Cc1nn(C)c2cc(F)c(-c3nc4ccc(N5CCN(C)CC5)cc4c(=O)[nH]3)cc12 [Example 59, 2-(6-fluoro-1,3-dimethyl-1H-indazol-5-yl)-6-(4-methylpiperazin-1-yl)quinazolin-4(3H)-one]",* (equal to or higher than 100% but lower than 120%)
14,"Cc1cn2cc(-c3ccc4nc(C5CCN(C)CC5)[nH]c(=O)c4c3C)ccc2n1 [Example 60, 5-methyl-6-(2-methylimidazo[1,2-a]pyridin-6-yl)-2-(1-methylpiperidin-4-yl)quinazolin-4(3H)-one]",** (equal to or higher than 120% but lower than 150%)
15,"Cc1cn2c(C)c(-c3ccc4nc(C5CCN(C)CC5)[nH]c(=O)c4c3)ccc2n1 [Example 61, 6-(2,5-dimethylimidazo[1,2-a]pyridin-6-yl)-2-(1-methylpiperidin-4-yl)quinazolin-4(3H)-one]",* (equal to or higher than 100% but lower than 120%)
16,"Cc1cn2cc(-c3cc4c(=O)[nH]c(C5CCN(C)CC5)nc4cc3C)ccc2n1 [Example 62, 7-methyl-6-(2-methylimidazo[1,2-a]pyridin-6-yl)-2-(1-methylpiperidin-4-yl)quinazolin-4(3H)-one]",* (equal to or higher than 100% but lower than 120%)
17,"Cc1cn2cc(-c3ccc4nc(C5CCN(C)CC5)[nH]c(=O)c4c3)c(C)cc2n1 [Example 63, 6-(2,7-dimethylimidazo[1,2-a]pyridin-6-yl)-2-(1-methylpiperidin-4-yl)quinazolin-4(3H)-one]",* (equal to or higher than 100% but lower than 120%)
18,"Cc1cn2cc(-c3nc4ccc(N5CCN(C)CC5)cc4c(=O)[nH]3)cc2c(C)n1 [Example 64, 2-(1,3-dimethylpyrrolo[1,2-a]pyrazin-7-yl)-6-(4-methylpiperazin-1-yl)quinazolin-4(3H)-one]",* (equal to or higher than 100% but lower than 120%)
19,"CN1CCC(c2nc3ccc(-c4ccc5nccn5c4)cc3c(=O)[nH]2)CC1 [Example 65, 6-(imidazo[1,2-a]pyridin-6-yl)-2-(1-methylpiperidin-4-yl)quinazolin-4(3H)-one]",** (equal to or higher than 120% but lower than 150%)
20,"CN1CCC(c2nc3ccc(-c4ccc5nc(C(F)(F)F)cn5c4)cc3c(=O)[nH]2)CC1 [Example 66, 2-(1-methylpiperidin-4-yl)-6-[2-(trifluoromethyl)imidazo [1,2-a]pyridin-6-yl]quinazolin-4(3H)-one]",* (equal to or higher than 100% but lower than 120%)
21,"Cc1nc2ccc(-c3ccc4nc(C5CCN(C)CC5)[nH]c(=O)c4c3)cn2c1C [Example 67, 6-(2,3-dimethylimidazo[1,2-a]pyridin-6-yl)-2-(1-methylpiperidin-4-yl)quinazolin-4(3H)-one]",** (equal to or higher than 120% but lower than 150%)
